Columns and labels:
Type in all cases: cell-based
[1] = molecular target: Dopamine transporter (DAT) (Homo sapiens (Human), UniProt Q01959); test: Dopamine transporter (DAT) uptake inhibition, [3H]-dopamine uptake in HEK cells; conditions: HEK cells expressing recombinant DAT; [3H]-dopamine 20 nM
Description: (§1) Dopamine transporter (DAT) Uptake Inhibition: Compound activity was assessed using a convenient in vitro assay. Briefly, HEK cells expressing recombinant DAT were plated at 50,000 cells/well on a 96 well plate pre-coated with Matrigel one day prior to the experiment. Culture medium (DMEM/FBS) was removed and 30 μl of assay buffer (Tris-HCl 50 mM, EDTA 4 mM, BDA 0.1%) with the desired concentration of test compound was added. The plate was incubated at 37° C. for 15 minutes. Assay buffer (30 μl) containing the same concentration of compound diluted in [3H]-Dihydroxyphenylethylamine (dopamine) uptake buffer (final concentration 20 nM) was added to each well and the plate was incubated at 37° C. for 5 minutes. The reaction mixture was removed, and the cells were washed with 100 μl ice-cold assay buffer twice. Lysis buffer (50 μl) was added to the cells followed by a 5 minute incubation with gentle shaking at room temperature. The lysate was transferred to a 96 well isoplate. Optiphase supermix (100 μl) was added to each well with complete mixing. Radioactivity was counted with Microbeta Counter and reported as CPM. Nomifensine was used as a control to measure non-specific uptake and for data normalization. Percent inhibition of [3H]-Dopamine uptake calculations: 100×(1−(CPMtest sample−CPMnon-specific uptake)/(CPMMAX−CPMMIN)).

[2] = molecular target: Norepinephrine transporter (NET) (Homo sapiens (Human), UniProt P23975); test: Norepinephrine transporter (NET) uptake inhibition, [3H]-Norepinephrine uptake in HEK cells; conditions: HEK cells expressing recombinant NET; [3H]-Norepinephrine 20 nM
Description: as §1, with “Norepinephrine” for “Dopamine”, “(NET)” for “(DAT)”, “NET” for “DAT”, “[3H]-Norepinephrine” for “[3H]-Dihydroxyphenylethylamine (dopamine)”, “Desipramine” for “Nomifensine”, “[3H]-Norepinephrine” for “[3H]-Dopamine”

[3] = molecular target: Serotonin transporter (SERT) (Homo sapiens (Human), UniProt P31645); test: Serotonin transporter (SERT) uptake inhibition, [3H]-Serotonin uptake in HEK cells; conditions: HEK cells expressing recombinant SERT, [3H]-Serotonin 10 nM; for inhibition at 10 µM / inhibition at 100 µM: HEK293; for inhibition at 10 µM: 10 μM test compound; for inhibition at 100 µM: 100 μM test compound
Description: Serotonin transporter (SERT) Uptake Inhibition: Compound activity was assessed using an in vitro assay. Briefly, HEK cells expressing recombinant SERT were plated at 50,000 cells/well on a 96 well plate pre-coated with Matrigel one day prior to the experiment. Culture medium (DMEM/FBS) was removed from each well, and 30 μl of assay buffer (Tris-HCl 50 mM, EDTA 4 mM, BDA 0.1%) with the desired concentration of test compound was added. The plate was incubated at 37° C. for 15 minutes. Assay buffer (30 μl) containing the same concentration of compound diluted in [3H]-Serotonin uptake buffer (final concentration 10 nM) was added to each well and the plate was incubated at 37° C. for 5 minutes. The reaction mixture was removed, and the cells were washed (2×) with 100 μl ice-cold assay buffer. Lysis buffer (50 μl) was added to the cells followed by a 5 minute incubation with gentle shaking at room temperature. The lysate was transferred to a 96 well isoplate. Optiphase supermix (100 μl) was added to each well and was thoroughly mixed. Radioactivity was counted with Microbeta Counter and reported as counts per minute (CPM). Fluoxetine was used as a control to measure non-specific uptake and for data normalization. Percent inhibition of [3H]-Serotonin uptake is based on the calculation: 100×(1−(CPMtest sample−CPMnon-specific uptake)/(CPMMAX−CPMMIN)).

Compound	IC50 [1] [µM]	IC50 [2] [µM]	inhibition at 10 µM [3] [%]	inhibition at 100 µM [3] [%]	IC50 [3] [µM]
CNC(C)Cc1ccc2c(c1)OCO2 (stereo not drawn) [MDMA, 3,4-Methylenedioxymethamphetamine, reference compound]	5.25	1.42	53.3	98	3.35
CC(N)Cc1ccc2occ(F)c2c1 (stereo not drawn) [Compound 1, 1-(3-fluorobenzofuran-5-yl)propan-2-amine]	15.6	4.73	72.7	97.9	6.75
CNC(C)Cc1ccc2occ(F)c2c1 (stereo not drawn) [Compound 2, 1-(3-fluorobenzofuran-5-yl)-N-methylpropan-2-amine]	9.59	5.02	64.7	99	5.72
